According to EP1391197B1, “Process for preparation of compositions with a high content in avarol and their use” (KliniPharm GmbH, priority 2002, dated 2004):

Biological target: T1, 5-Lipoxygenase (Homo sapiens, UniProt P09917)
T1 construct: Granulozyten freiwilliger Spender; endogenous in cells; host or cells: granulocytes of volunteer donors
T1 sequence (P09917 1-674): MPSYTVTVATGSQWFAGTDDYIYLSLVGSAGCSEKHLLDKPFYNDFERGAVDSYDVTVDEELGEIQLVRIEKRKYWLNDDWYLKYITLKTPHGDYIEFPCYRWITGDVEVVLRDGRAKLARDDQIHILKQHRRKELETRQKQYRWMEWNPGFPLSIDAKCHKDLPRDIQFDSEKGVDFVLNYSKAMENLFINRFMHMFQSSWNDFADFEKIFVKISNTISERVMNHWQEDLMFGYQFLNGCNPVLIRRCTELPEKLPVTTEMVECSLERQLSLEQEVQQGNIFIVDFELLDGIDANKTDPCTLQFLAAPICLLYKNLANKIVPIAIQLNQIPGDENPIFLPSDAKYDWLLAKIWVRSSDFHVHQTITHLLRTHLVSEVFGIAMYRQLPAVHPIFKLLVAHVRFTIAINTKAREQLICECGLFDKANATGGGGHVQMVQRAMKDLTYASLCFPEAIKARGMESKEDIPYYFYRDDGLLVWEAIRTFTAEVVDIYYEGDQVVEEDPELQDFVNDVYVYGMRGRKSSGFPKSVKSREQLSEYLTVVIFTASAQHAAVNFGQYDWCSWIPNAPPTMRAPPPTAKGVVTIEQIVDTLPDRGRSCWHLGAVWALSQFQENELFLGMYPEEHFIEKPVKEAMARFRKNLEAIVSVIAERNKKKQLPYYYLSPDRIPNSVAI
Assay: 5-lipoxygenase test in granulocytes (HPLC of 5-lipoxygenase products)
Format: cell-based
Details: granulocytes of volunteer donors, arachidonic acid and calcium ionophore, 37°C, 10 min, pH 7,4; read-out: IC50- Wert (Bildung von Biotransformationsprodukten der 5-Lipoxygenase)
Experimental: Granulozyten freiwilliger Spender [5-10 x 10^6 / ml] wurden in gepufferter physiologischer Kochsalzlösung [pH 7,4] mit Arachidonsäure [40µmol] und Calciumionophor [10µmol] und steigenden Konzentrationen [10nMol bis 10µMol] der Prüfsubstanzen, Avarol bzw. einer Avarol - Zusammensetzung gemäß Beispiel 3, bei 37°C 10 Minuten lang inkubiert. Anschließend wurden die Reaktion durch Zugabe von 1ml Methanol beendet, die Proben zentrifugiert und die Konzentration an Biotransformations-Produkten der 5-Lipoxygenase im Überstand per HPLC im UV bei 280 und 235nm analysiert. Avarol und die neue Zusammensetzung mit hohem Avarolgehalt, der Dysidea avara-Nativextrakt, hemmten die Bildung von Biotransformationsprodukten der 5-Lipoxygenase. Die IC50- Werte unterschieden sich aber auffällig deutlich. Während für Avarol ein IC50- Wert von 1,3 µM ermittelt wurde, der sich mit Literaturangaben deckt, hemmte die neue Zusammensetzung die Bildung von Produkten der 5-Lipoxygenase bereits mit einem IC50- Wert von 58 nM und war damit überraschend stärker wirksam als Avarol.

## CC1=CCC[C@H]2[C@](C)(Cc3cc(O)ccc3O)[C@@H](C)CC[C@]12C [Avarol]
  IC50: 1300 nM
